Earlier results in patent US20210337800A1, “METHOD AND SYSTEM OF IMPROVING THE PERSONAL PROTECTIVE EQUIPMENT OF […] AND THE GENERAL PUBLIC USING ANT[…]” (Sockdocs Inc., priority 2020, published 2021).

Tested on: viruses
Settings: testing in 2006; no method or virus named

For `CCCCCCCCCCCCCCCCCC[N+](C)(C)CCC[Si](OC)(OC)OC.[Cl-]` [3-(trimethoxysilyl) propyldimethyloctadecyl ammonium chloride], the anti-viral activity is listed as “showed anti-viral activity”.
